Laboratory results: US20150368248A1, “2-SUBSTITUTED-6-BIARYLMETHYLAMINO-9-CYCLOPENTYL-9H-PURINE DERIVATIVES, USE THEREOF AS MEDICAMENTS, AND PHARMACEUTICAL COMPOSITIONS” (UNIVERZITA PALACKEHO V OLOMOUCI, priority 2013, published 2015)
Like-named read-outs stand apart in the source and are kept apart here.

Assays:
[1] = system: human umbilical vein endothelial cells (HUVEC); assay: HUVEC proliferation, Calcein AM; type: cell-based; conditions: Homo sapiens, HUVEC, read-out: Inhibitory concentration for HUVEC cells - IC50
Description: Novel 2-substituted-6-biarylmethylamino-9-cyclopentyl-9H-purine derivatives were tested for their potential anti-angiogenic properties; we analyzed its influence on the proliferation (Tab. 9), migration and tube formation of human umbilical vein endothelial cells (HUVEC). Confluent HUVECs were seeded in 96-well microtiter plates to detect their proliferation for 24 or 72 h using Calcein AM solution (Invitrogen) and a Fluoroskan Ascent microplate reader (Labsystems) as described previously (Krystof et al., 2011, Eur J Med Chem. 2011 September; 46(9):4289-94).

[2] = system: 3sp (formerly described as HCC-1.1); assay: MTT cell viability assay (Example 40); type: cell-based; conditions: Homo sapiens, 72 hours
Description: (§1) The human hepatoma cell lines and HepG2, PLC/PRF/5 (PLC), Hep3B and 3sp (formerly described as HCC-1.1) were cultivated in RPMI 1640 and 10% fetal calf serum (FCS) as described (31, 32). All cells were kept at 37° C. and 5% CO2 and were routinely screened for the absence of mycoplasma.
(§2) Cell viability was determined using the 3-(4,5 dimethylthiazol-2-yl)-2,5-diphenyltetrazolium bromide (MTT) assay. Briefly, cells were seeded in triplicates at a density of 6×10^3 cells per well. After 24 hours, cells were incubated with drug-containing medium for 72 hours. Cells were incubated with MTT solution (5 mg/ml; Sigma, St. Louis, USA) and medium was replaced with DMSO after five hours. The absorbance was measured at 620 nm by employing a microplate reader (Asys HiTech, Salzburg, Austria). MTT assays were repeated 3 times for each drug application and untreated cells were used as reference. IC50 values were obtained by log-linear interpolation of data points and are depicted by dose-response curves using the software GraphPad Prism® 5.01.

[3] = system: HepG2; assay: MTT cell viability assay (Example 40); type: cell-based; conditions: Homo sapiens, 72 hours
Description: as §1, §2

[4] = system: PLC/PRF/5 (PLC); assay: MTT cell viability assay (Example 40); type: cell-based; conditions: Homo sapiens, 72 hours
Description: as §1, §2

[5] = system: Hep3B; assay: MTT cell viability assay (Example 40); type: cell-based; conditions: Homo sapiens, 72 hours
Description: as §1, §2

[6] = Xenografted tumor formation and drug intervention; type: in vivo; conditions: SCID, mouse, in vivo, ip; mice, intraperitoneal; read-out: maximum tolerated dose (MTD)
Description: (§3) BrdU incorporation into cell nuclei directly indicates cell proliferation. Cultured cells were grown in medium containing 10 μM 5-bromo-2′-deoxy-uridine (BrdU) for 1 hour. After removing labeling medium, cells were fixed and DNA denatured with a fixing/denaturing solution containing 2 M HCl for 30 minutes at 37° C. To analyze BrdU incorporation in vivo, 200 μl Ringer solution containing 1 mg BrdU was intraperitoneally injected into xenografted mice 2 hours prior to analysis. Mice were sacrificed and tumor tissue was fixed in 4% formaldehyde and processed for immunohistochemistry. The incorporation of BrdU into cellular DNA was detected using a monoclonal anti-BrdU antibody (Sigma, St. Louis, USA) followed by incubation with a peroxidase-conjugated secondary antibodies (Calbiochem, LaJolla, USA) at dilutions of 1:10,000.
(§4) 5×10^6 human hepatoma cells were re-suspended in 100 μl Ringer solution and subcutaneously injected into severe combined immunodeficient (SCID) mice (Harlan Laboratories, San Pietro, Italy). Tumor volume was determined as described (36). Pharmacological intervention was performed in tumor-bearing mice for 17 days by daily intraperitoneal injection of either 5 mg/kg BA-12 or 1 mg/kg BP-14 in 100 μl of 0.01% DMSO. Control tumor-bearing mice were daily intraperitoneally injected with 100 μl of 0.01% DMSO only. All animal experiments were performed according to the Austrian guidelines for animal care and protection.
(§5) Mice were sacrificed and tumors were fixed as described (37). 4 μm thick, paraffin-embedded sections were stained with hematoxylin and eosin (H&E). For immunohistochemistry, sections were stained with anti-BrdU (Sigma, St. Louis, USA), 1:200. Biotinylated secondary antibodies were used at 1:200. The immunoperoxidase procedure was performed using a Vectastain Elite ABC kit (Vector Laboratories, CA, USA) as described by the manufacturer.

[7] = system: HepG2- and PLC-derived tumors; assay: Xenografted tumor formation and drug intervention; type: in vivo
Description: as §3, §4, §5

[8] = system: PARP-1; assay: Immunoblot analysis of PARP cleavage; type: cell-based, human
Description: Effect of BP14 on cell apoptosis was complemented by immunoblot analysis of selected apoptotic proteins. For immunoblotting, cell were detached with rubber policeman and washed three times with ice-cold PBS and lysed in buffer (50 mM Tris, pH 7.4, 250 mM NaCl, 5 mM EDTA, 50 mM NaF, 1 mM Na3VO4, 1% Nonidet P40) containing mixture of protease and phosphatase inhibitors (Sigma-Aldrich, USA). 20 μg of total proteins were separated by SDS-polyacrylamide gel electrophoresis (SDS-PAGE) and transferred onto nitrocellulose membranes. Membranes were blocked in 5% milk and 0.1% Tween 20 in PBS and probed overnight with specific antibodies for PARP-1 (clone F-2; Santa Cruz Biotechnology, USA), Mcl-1 (S-19; Santa Cruz Biotechnology, USA) and β-actin (C-4, Santa Cruz Biotechnology, USA). All primary antibodies were diluted in PBS containing 5% powdered milk; 0.1% Tween 20. Peroxidase conjugated rabbit anti-mouse immunoglobulin or porcine anti-rabbit immunoglobulin antisera (DAKO, Denmark) were used as the secondary antibodies and visualised with ECL reagents (Amersham-Pharmacia, Little Chalfont, UK).
Immunoblotting was performed as described previously (36). The primary antibodies were used at the dilutions: anti-phospho-Ser5 RNA Pol II (CDK7; Bethyl Laboratories, Montgomery, USA), 1:1,000; anti-phospho-Ser2 RNA Pol II (CDK9; Bethyl Laboratories, Montgomery, USA), 1:1,000; anti-RNA Pol II (Santa Cruz Biotechnology, Santa Cruz, USA), 1:1,000; anti-PARP (Cell Signaling Technology, Beverly, USA), 1:1,000; anti-β-actin (Sigma, St. Louis, USA), 1:2.500. Horseradish peroxidase-conjugated secondary antibodies (Calbiochem, LaJolla, USA) were used at dilutions of 1:10,000.

[9] = system: HUVEC cells; assay: Tube formation assay on Matrigel; type: cell-based, human; conditions: 24 h treatment
Description: For an evaluation of tube formation, HUVEC cells in endothelial cell growth medium (ECGM) containing tested compound were seeded onto Matrigel® (BD) coated ibidi angiogenesis slides (15-well, ibidi GmbH, Munich, Germany). After 24 h, images were taken using the Olympus BX50 miscoscope with DP Controller system. Evaluation of formation of tubes was expressed as a number of tubes and number of nodes of treated cells compared with untreated control using specific “in house” software.

NC1CCC(Nc2nc(NCc3ccc(-c4ccco4)cc3)c3ncn(C4CCCC4)c3n2)CC1 (centres unmarked) [BP4, N^2-(4-amino-cyclohexyl)-9-cyclopentyl-N^6-(4-furan-2-yl-benzyl)-9H-purine-2,6-diamine]
IC50 ([1]; 24 h): 15700 nM
IC50 ([1]; 72 h): 450 nM

NC1CCC(Nc2nc(NCc3ccc(-c4ccco4)nc3)c3ncn(C4CCCC4)c3n2)CC1 (centres unmarked) [BP14, N^2-(4-amino-cyclohexyl)-9-cyclopentyl-N^6-(6-furan-2-yl-pyridin-3-ylmethyl)-9H-purine-2,6-diamine]
IC50 [2]: 480 nM
IC50 [3]: 120 nM
IC50 [4]: 20 nM
IC50 [5]: 80 nM
MTD at 17 days [6]: 1 mg/kg
decrease of S-phase-positive cells by BrdU incorporation in tumors ([7]; HepG2- and PLC-derived tumors): 2 fold
tumor volumes of xenografts ([7]; HepG2 and PLC xenografts, 1 mg/kg daily i.p., 17 days): strongly reduced tumor volumes
PLC tumors ([7]; PLC xenograft, 1 mg/kg daily i.p., 17 days): regression of PLC tumors
IC50 ([1]; 24 h): > 50000 nM
IC50 ([1]; 72 h): 50 nM
cleavage of PARP and p53 expression ([8]; 0.2 μM, HepG2 and p53-mutated PLC cells): induced cleavage of PARP and p53 expression
protein level of PARP-1 ([8]; HUH-7 cells, concentration up to 3xIC50): no effect
caspase-3-cleaved PARP-1 fragment at 89 kDa ([8]; Hep3B and AHK3p cells, 24 hours): markedly observed
PARP processing in PHHs ([8]; primary human hepatocytes): failed to induce PARP processing
branching points, number of tubes, total tube length and mean tube length [9]: significantly reduced

COc1ccccc1-c1ccc(CNc2nc(NC3CCC(N)CC3)nc3c2ncn3C2CCCC2)cn1 (centres unmarked) [BP18, N^2-(4-amino-cyclohexyl)-9-cyclopentyl-N^6-[6-(2-methoxy-phenyl)-pyridin-3-ylmethyl]-9H-purine-2,6-diamine]
IC50 ([1]; 24 h): > 50000 nM
IC50 ([1]; 72 h): 520 nM

NC1CCC(Nc2nc(NCc3ccc(-c4cccc(F)c4)nc3)c3ncn(C4CCCC4)c3n2)CC1 (centres unmarked) [BP19, N^2-(4-amino-cyclohexyl)-9-cyclopentyl-N^6-[6-(3-fluoro-phenyl)-pyridin-3-ylmethyl]-9H-purine-2,6-diamine]
IC50 ([1]; 24 h): 21800 nM
IC50 ([1]; 72 h): 370 nM

NC1CCC(Nc2nc(NCc3ccc(-c4ccccc4O)nc3)c3ncn(C4CCCC4)c3n2)CC1 (centres unmarked) [BP20, N^2-(4-amino-cyclohexyl)-9-cyclopentyl-N^6-[6-(2-hydroxy-phenyl)-pyridin-3-ylmethyl]-9H-purine-2,6-diamine]
IC50 ([1]; 24 h): 29200 nM
IC50 ([1]; 72 h): 570 nM
branching points, number of tubes, total tube length and mean tube length [9]: significantly reduced

NC1CCC(Nc2nc(NCc3ccc(-n4cccn4)cc3)c3ncn(C4CCCC4)c3n2)CC1 (centres unmarked) [BP24, N^2-(4-amino-cyclohexyl)-9-cyclopentyl-N^6-(4-pyrazol-1-yl-benzyl)-9H-purine-2,6-diamine]
IC50 ([1]; 24 h): > 50000 nM
IC50 ([1]; 72 h): 170 nM

NC1CCC(Nc2nc(NCc3ccc(-c4cccs4)nc3)c3ncn(C4CCCC4)c3n2)CC1 (centres unmarked) [BP30, N^2-(4-amino-cyclohexyl)-9-cyclopentyl-N^6-(6-thiophen-2-yl-pyridin-3-ylmethyl)-9H-purine-2,6-diamine]
IC50 ([1]; 24 h): 20400 nM
IC50 ([1]; 72 h): 80 nM

NC1CCC(Nc2nc(NCc3ccc(-c4ccsc4)nc3)c3ncn(C4CCCC4)c3n2)CC1 (centres unmarked) [BP35, N^2-(4-amino-cyclohexyl)-9-cyclopentyl-N^6-(6-thiophen-3-yl-pyridin-3-ylmethyl)-9H-purine-2,6-diamine]
IC50 ([1]; 24 h): > 50000 nM
IC50 ([1]; 72 h): 180 nM

NC1CCC(Nc2nc(NCc3ccc(-c4ccoc4)nc3)c3ncn(C4CCCC4)c3n2)CC1 (centres unmarked) [BP36, N^2-(4-amino-cyclohexyl)-9-cyclopentyl-N^6-(6-furan-3-yl-pyridin-3-ylmethyl)-9H-purine-2,6-diamine]
IC50 ([1]; 24 h): 20800 nM
IC50 ([1]; 72 h): 190 nM
